One assay concerns CHO-K1 cells. As to the kind of experiment: Delivery of reporter mRNA with CPPs in cell culture (luciferase luminescence 24 h post-transfection). The class given is cell-based. In short, it runs like this:
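CHO-K1 cells (10,000/well) transfected in 10% FBS DMEM with 0.1 μg firefly luciferase mRNA complexed with CPP at 3:1 charge ratio (peptide excess). Luminescence read in lysates 24 h later, normalised to BCA total protein (RLU/mg).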

The next assay deals with spleen of BALB/c mice. As to the kind of experiment: In vivo delivery of mRNA with CPPs - reporter levels in the spleen. The method in brief:
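CPP/mRNA complexes were formed at the indicated charge ratios in water for 30 min at room temperature, using 10 or 50 μg mRNA, then brought to 5% glucose. Complexes were injected intravenously via the tail vein into BALB/c mice. Spleens were harvested 16 h after the single injection, and luciferase (RLU) was measured in whole-tissue homogenate.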

Assay [1] concerns spleen cell subtypes (T cells, macrophages, dendritic cells, rest of the lymphocytes). As to the kind of experiment: Immunophenotyping the spleen cell subtypes post-transfection of mRNA with NF55 in vivo. The conditions noted are these: in words; luciferase mRNA 30 μg, CR2, i.v., 16 h post-injection. More on the design: species or system mice. Here is the method: FIG. 6: Reporter levels detected from spleen cells subtypes collected from NF55/mRNA treated mice. Reporter protein levels were evaluated from the sorted splenocytes: T cells, Macrophages, Dendritic cells and the rest of the lymphocytes. Results are shown as the fold change compared to untreated mice.
To analyse the cell subtypes that were transfected with the CPP, 30 μg of luciferase-encoding mRNA was complexed with the CPP at CR2 in water and injected i.v. 16 h post-injection, the spleens were collected into ice-cold dissociation buffer (1×PBS without Ca^2+ and Mg^2+ supplemented with 2 mM EDTA). Following gentle mechanical dissociation by grinding, splenic cells were strained with 100 μm cell strainer and centrifuged for 5 min at +4 °C, 300×g. A 2-minute incubation with 1 ml of RBC lysis buffer ACK (Thermo) was used for the red blood cell lysis. Flow cytometry buffer (dissociation buffer supplemented with 0.5% (w/v) BSA) was added, cells were centrifuged for 5 min at +4 °C, 300×g and counted. […]
In order to determine to which types of spleen cells mRNA were transfected in vivo, cells collected from the spleens of transfected animals were sorted according to their subtype and the reporter expression measured. mRNA encoding luciferase (mRNA (luc)) was used as a reporter model.

SMILES strings stand for the structures.

Take `CCCCCCCCCCCCCCCCCC(=O)N[C@@H](C)C(=O)NCC(=O)N[C@@H](Cc1ccc(O)cc1)C(=O)N[C@@H](CC(C)C)C(=O)N[C@@H](CC(C)C)C(=O)NCC(=O)NCCC[C@H](N)C(=O)N[C@H](C(=O)N[C@@H](CC(N)=O)C(=O)N[C@@H](CC(C)C)C(=O)N[C@@H](CCCCN)C(=O)N[C@@H](C)C(=O)N[C@@H](CC(C)C)C(=O)N[C@@H](C)C(=O)N[C@@H](C)C(=O)N[C@@H](CC(C)C)C(=O)N[C@@H](C)C(=O)N[C@@H](CCCCN)C(=O)N[C@@H](C)C(=O)N[C@H](C(=O)N[C@@H](CC(C)C)C(N)=O)[C@@H](C)CC)[C@@H](C)CC` [NF55]: the “Average RLU/mg (reporter levels post-transfection of mRNA)” value in the assay on CHO-K1 cells (firefly luciferase mRNA, 0.1 μg per well, charge ratio 3:1, serum containing media, 24 h, RLU normalised to total protein in lysate) is reported as 1 270 000 000 RLU/mg. In addition, the “Efficiency of mRNA transfection/delivery” value with CHO-K1 cells (in words, FIG. 1 / Table 2, cell culture) is on record as “the most efficient”. In addition, the “Efficacy of mRNA delivery into the spleen in vivo” value in the assay with spleen of BALB/c mice (in words, FIG. 5 / Table 5) is given as “delivered mRNA into the spleen in vivo with high efficacy”. Moreover, the “Reporter levels in the spleen (RLU)” value in the assay on spleen of BALB/c mice (mRNA, tail vein injection, spleens harvested 16 hours after single injection, whole tissue homogenate) is reported as 124 363 RLU. Moreover, in assay [1], the “Reporter signal in spleen cell subtypes” value was “the majority of the reporter signal arose from the dendritic cells (DCs)”.

Source of the values: US20260355330A1, “CELL PENETRATING PEPTIDES AND USES THEREOF” (VECTIOPEP OÜ, priority 2022, published 2026).
